# Paper PMC4559364, “Triterpenoid profiling and functional characterization of the initial genes involved in isoprenoid biosynthesis in neem (Azadirachta indica)” (BMC Plant Biology, 2015)
# How the values were obtained:
# Assay type in all cases: biochemical
# [1] = biological target: T1, AiGDS (Azadirachta indica, UniProt A0A088CND2); test: GC-MS of geraniol after alkaline phosphatase; details: HEPES buffer, 30 °C, 2 h
# T1 construct: E. coli; solubilised from inclusion bodies by pH 11 to 7 shift; Ni-NTA; homomeric type; mitochondrial targeting predicted
# T1 sequence (A0A088CND2 1-420): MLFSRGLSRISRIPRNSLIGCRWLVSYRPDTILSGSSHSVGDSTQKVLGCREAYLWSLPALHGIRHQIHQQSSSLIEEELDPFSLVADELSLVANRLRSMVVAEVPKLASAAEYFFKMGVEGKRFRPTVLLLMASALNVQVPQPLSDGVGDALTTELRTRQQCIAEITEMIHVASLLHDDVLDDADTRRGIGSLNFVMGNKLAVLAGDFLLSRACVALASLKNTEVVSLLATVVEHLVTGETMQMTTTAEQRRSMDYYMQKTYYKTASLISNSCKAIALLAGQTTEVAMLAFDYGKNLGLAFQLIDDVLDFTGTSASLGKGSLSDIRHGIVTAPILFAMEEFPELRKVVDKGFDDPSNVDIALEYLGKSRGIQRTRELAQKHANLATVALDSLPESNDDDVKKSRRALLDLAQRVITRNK
# [2] = biological target: T2, AiFDS (Azadirachta indica, UniProt A0A088CNE3); test: GC-MS of (E,E)-farnesol after alkaline phosphatase; details: HEPES buffer, 30 °C, 2 h
# T2 construct: E. coli BL21(DE3); Ni-NTA
# T2 sequence (A0A088CNE3 1-342): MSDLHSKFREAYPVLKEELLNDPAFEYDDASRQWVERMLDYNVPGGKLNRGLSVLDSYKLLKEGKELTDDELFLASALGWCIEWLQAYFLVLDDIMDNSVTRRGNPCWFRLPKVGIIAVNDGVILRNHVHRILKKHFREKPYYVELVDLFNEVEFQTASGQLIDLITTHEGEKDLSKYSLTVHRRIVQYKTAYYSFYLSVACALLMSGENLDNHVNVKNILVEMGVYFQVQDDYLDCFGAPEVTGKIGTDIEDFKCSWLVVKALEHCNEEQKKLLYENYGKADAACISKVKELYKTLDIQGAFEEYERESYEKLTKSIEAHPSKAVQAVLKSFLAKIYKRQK
# [3] = biological target: T3, full length AiSQS (Azadirachta indica, UniProt I1Z8B6); test: GC-MS of squalene; details: 100 μM FPP, 1 mM NADPH; 30 °C, 2 h
# T3 construct: gene SQS1; full-length, printed as 396 residues from 1176 bp ORF (these disagree), 44 kDa; pRSET-C, His6 tag; E. coli BL21 Star(DE3); glycerol/CHAPS, Ni-NTA
# T3 sequence (I1Z8B6 entry or part of it): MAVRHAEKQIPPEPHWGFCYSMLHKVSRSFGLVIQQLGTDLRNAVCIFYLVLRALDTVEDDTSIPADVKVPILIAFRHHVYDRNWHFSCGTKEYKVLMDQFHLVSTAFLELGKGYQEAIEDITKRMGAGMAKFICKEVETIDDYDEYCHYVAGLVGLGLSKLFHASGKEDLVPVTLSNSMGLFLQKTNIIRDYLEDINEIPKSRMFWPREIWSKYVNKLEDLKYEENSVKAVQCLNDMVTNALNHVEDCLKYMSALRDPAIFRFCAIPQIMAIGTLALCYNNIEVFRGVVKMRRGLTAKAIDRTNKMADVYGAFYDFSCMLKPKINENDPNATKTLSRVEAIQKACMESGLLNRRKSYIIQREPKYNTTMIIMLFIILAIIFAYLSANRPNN
# [4] = biological target: T4, truncated AiSQS (Azadirachta indica, UniProt I1Z8B6); test: GC-MS of squalene; details: 100 μM FPP, 1 mM NADPH; 30 °C, 2 h
# T4 construct: gene SQS1; truncated: 15 N-terminal and 63 C-terminal residues deleted (end border uncertain, printed 396 residues and 1176 bp ORF disagree); pET28c, His6 tag; E. coli BL21(DE3); Ni-NTA; ~35 kDa
# T4 sequence (I1Z8B6 entry or part of it): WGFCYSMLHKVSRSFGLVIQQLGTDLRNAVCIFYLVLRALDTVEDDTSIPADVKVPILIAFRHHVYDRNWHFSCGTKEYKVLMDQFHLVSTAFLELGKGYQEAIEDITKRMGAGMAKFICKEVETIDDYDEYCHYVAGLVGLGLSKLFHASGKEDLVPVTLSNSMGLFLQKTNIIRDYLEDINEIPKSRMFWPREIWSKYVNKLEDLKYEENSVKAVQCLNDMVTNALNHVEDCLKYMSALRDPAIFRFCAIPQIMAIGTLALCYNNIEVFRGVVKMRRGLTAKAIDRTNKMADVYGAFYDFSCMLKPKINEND
Compound,GC-MS of squalene [3],GC-MS of squalene [4],further results
C=C(C)CCOP(=O)(O)OP(=O)(O)O [IPP],,,"GC-MS of geraniol after alkaline phosphatase ([1]; with DMAPP, IPP 100-200 μM): Purified recombinant AiGDS was incubated with equimolar concentration of IPP and DMAPP; GC-MS of (E,E)-farnesol after alkaline phosphatase ([2]; with DMAPP or GPP, IPP 100-200 μM): purified short-chain prenyltransferase was incubated with DMAPP/GPP and IPP followed by treatment with alkaline phosphatase"
CC(C)=CCC/C(C)=C/COP(=O)(O)OP(=O)(O)O [GPP],,,"GC-MS of (E,E)-farnesol after alkaline phosphatase ([2]; with IPP, GPP 100 μM): purified short-chain prenyltransferase was incubated with DMAPP/GPP and IPP followed by treatment with alkaline phosphatase"
NC(=O)C1=CN([C@@H]2O[C@H](COP(=O)(O)OP(=O)(O)OC[C@H]3O[C@@H](n4cnc5c(N)ncnc54)[C@H](OP(=O)(O)O)[C@@H]3O)[C@@H](O)[C@H]2O)C=CC1 [NADPH],full length and truncated AiSQS with FPP in the presence of NADPH,full length and truncated AiSQS with FPP in the presence of NADPH,
CC(C)=CCC/C(C)=C/CC/C(C)=C/COP(=O)(O)OP(=O)(O)O [FPP],full length and truncated AiSQS with FPP in the presence of NADPH,full length and truncated AiSQS with FPP in the presence of NADPH,
CC(C)=CCOP(=O)(O)OP(=O)(O)O [DMAPP],,,"GC-MS of geraniol after alkaline phosphatase ([1]; with IPP, DMAPP 100 μM): Purified recombinant AiGDS was incubated with equimolar concentration of IPP and DMAPP"
